The conditions of series [1]: pH>7; cited from earlier work.
For series [2] the following is noted: cited from earlier work.
Series [3] in a line: In vitro release profile (dialysis method). It counts as physicochemical. The conditions noted are these: for release profile: 37° C. (FIG. 17C). Here is the method:
(§1) The chemical stability is measured by detecting remaining phytochemicals' concentrations at different time points using the HPLC system. The release profile is measured using a dialysis method. Briefly, native phytochemicals and NCs are each put into dialysis bags with Molecular Weight Cut Off (MWCO) 6,000-8,000. The dialysis bags are dipped into the dissolution medium composed of 1×PBS and methanol (9:1, v:v). The dissolution medium is stirred at 200 rpm at 4° C. and 22° C. The dissolution medium is changed completely every 2 hours for the first 24 hours, and every 6 hours for the rest 30 days. The amounts of phytochemicals in the release medium are measured using the above HPLC methods.
Using R-NPs as an example, the NPs were stable at both 4° C. and 22° C. (FIG. 17A). Nanoencapsulation increased R's stability (FIG. 17B). Similarly, Q and RQ were also stable at 4° C. and 22° C. after encapsulation. A dialysis method was used to measure R and Q release profiles from NPs at 37° C. […] The release profiles of NPs were even slower at 4° C. and 22° C.

The test system of another series is E. coli (48953). Put plainly: Anti-bacterial assay (OD 600 nm, CFU), Example 2. The format is cell-based. The conditions noted are these: 100 μg/mL, 24 h of incubation. Here is the method: (§2) The concentrations of R and Q in the NPs were characterized by HPLC. Three parallel experiments were performed for each sample, the absorbance of bacteria solution treated with different samples was measured by a microplate reader at a wavelength of 600 nm. S. enteritidis (13076), L. monocytogenes (15313), E. coli (48953) and S. aureus (25923) were used in this study and treated with R-NPs, Q-NPs, RQ-NPs, and CS-coated R-NPs, Q-NPs, and RQ-NPs, respectively. Different concentrations of R-NPs and Q-NPs were investigated. Initially, 50 μg/mL R and R-NPs were used. […] S. enteritidis, L. monocytogenes, E. coli and S. aureus were cultured in broth media under constant shaking at 100 rpm at 37° C. to reach the mid exponential growth phase. The number of bacteria was determined by counting the CFU formed on the agar plate. Bacterial suspensions were diluted to approximately 1×10^4-5 CFU/mL in broth media. The NPs solution (20 μL) was mixed with 180 μL of bacterial suspension in a 96-well plate, and the experiments were performed in triplicates. The plates were incubated at 37° C. under constant shaking at 100 rpm overnight, and the optical density (OD) at 600 nm was measured on a plate reader.

In the next series the test system is L. monocytogenes (15313). The series can be described thus: Anti-bacterial assay (OD 600 nm, CFU), Example 2. The format is cell-based. The note with it: 100 μg/mL, 24 h of incubation. Here is the method: as §2
A further series concerns S. aureus (25923). Put plainly: Anti-bacterial assay (OD 600 nm, CFU), Example 2. The note with it: 100 μg/mL, 24 h of incubation. It counts as cell-based. The procedure:
as §2

Another series has as its system S. enteritidis (13076). Put plainly: Anti-bacterial assay (OD 600 nm, CFU), Example 2. The format is cell-based. The note with it: 100 μg/mL, 24 h of incubation. The procedure: as §2
The test system of series [4] is S. enteritidis (13076), L. monocytogenes (15313), E. coli (48953) and S. aureus (25923). Put plainly: Anti-bacterial assay, Example 2, result stated for the four strains together. It counts as cell-based. On the set-up: anti-bacterial effects: dose or concentration left out as unconfirmed. The procedure: as §2, with “The plates were incubated at 37° C. under constant shaking at 100 rpm overnight, and the optical density (OD) at 600 nm was measured on a plate reader.” left out

The next series deals with E coli (ATCC 43895). Put plainly: Antibacterial activity (absorbance at 595 nm), Example 3. The format is cell-based. The conditions noted are these: 300 μg/mL R or Q; free RQ 240 μg/mL (FIG. 19B). The source says: (§3) The antibacterial activity of all NPs and their controls against Salmonella enterica subsp. enterica (S. enterica ATCC 13076), Listeria monocytogenes (L. monocytogenes ATCC 15313), E coli (ATCC 43895) and Staphylococcus aureus subsp. aureus (S. aureus ATCC 25923) were investigated.

Series [5] deals with L. monocytogenes ATCC 15313. Described as above. It counts as cell-based, Listeria monocytogenes. The note with it: 300 μg/mL R or Q; free RQ 240 μg/mL (FIG. 19C).
From the text: as §3

The nature of series [6]: Stability of nano-encapsulated and native EGCG in 1×PBS at pH 7.4. The format is physicochemical. The note with it: neutral pH (7.4). Here is the method: Three independent experiments were conducted at each time point.
The degradation rate of EGCG in NLCs and CSNLCs were much slower.
as §1

For series [7] the following is noted: after drinking 2 cups of green tea; cited from earlier work.
The conditions of series [8]: after drinking tea containing catechins at 10 mg/kg body weight; cited from earlier work.
Series [9] in a line: Pharmacokinetics and bioavailability of Q after oral administration to rats. The conditions noted are these: male, Sprague-Dawley, rat, 50 mg/kg. Here is the method: Male Sprague-Dawley rats (n=3 per group) weighing 200-250 g were purchased pre-cannulated from Harlan Laboratories (Indianapolis, IN). The rounded tips catheters were surgically implanted into the jugular vein of the rats with the benefits of multiple blood draw. […] Blood was collected via the catheters at hour 0, 1, 2, 3, 4, 6, 8, 10, 14, 24, 36, and 48 into heparinized tubes. Blood Q concentrations were measured using a HPLC system (FIG. 5). Pharmacokinetic parameters were determined on each individual set of data by using a non-compartmental model (Song I, Eur J Clin Pharmacol. 2016; 72:665-670). […] The relative bioavailability Fr at infinity was calculated as Fr=AUCQ-NLC, […]/AUCQ, 0→∞. The half-life (t1/2)=0.693/k. The mean residence time (MRT)=1/k.
Male Sprague-Dawley rats (n=3 per group) weighing 200-250 g and the rounded tips catheters were surgically implanted into the jugular vein of the rats with the benefits of multiple blood draw. […] Blood was collected via the catheters at hour 0, 1, 2, 3, 4, 6, 8, 10, 14, 24, 36, and 48 into heparinized tubes. Blood Q concentrations were measured using an HPLC system (FIG. 21). Pharmacokinetic parameters were determined on each individual set of data by using a non-compartmental model. […] The area under the plasma concentration time curve from time zero to infinity (AUC0→∞) was calculated as AUC0→24 h+Ct/Ke, where Ct was the Q concentration observed at the […] time, and Ke is the apparent elimination rate constant obtained from the terminal slope of the individual plasma concentration-time curves after logarithmic transformation of the plasma concentration values and application of linear regression. The relative bioavailability Fr at infinity was calculated as Fr=AUCQ-NP, 0→∞/AUCQ, 0→∞. The half-life (t1/2)=0.693/k. The mean residence time (MRT)=1/k.

The conditions of series [10]: room temperature; cited from earlier work.

Where two headings read alike, the source gives them in different places.

Regarding `COc1cc(/C=C/C(=O)CC(=O)/C=C/c2ccc(O)c(OC)c2)ccc1O` [curcumin, Curcumin], the half-life in series [1] is under 0.167 h. In addition, the solubility in water result in [2] was “less than 0.1 mg/mL”.
On to `Oc1ccc(/C=C/c2cc(O)cc(O)c2)cc1` [R, 3,5,4′-tri-hydroxy-trans-stilbene], for which the release behavior result in [3] (RES NPs study) is recorded as “burst release”. Besides, the release profile result in series [3] (dialysis method) is listed as “burst release”. For the same compound, the anti-bacterial effects result in the series on E. coli (48953) is given as “showed anti-bacterial effects”; in the series on S. aureus (25923), “showed anti-bacterial effects”; in [4] (6 h of incubation) it was “significant anti-bacterial effects”. Also, the “growth (CFU formation)” value with E. coli (48953) is “significantly decreased the growth”; with L. monocytogenes (15313), “still not shown”; in the series on S. aureus (25923), “significantly decreased the growth”; with S. enteritidis (13076), “still not shown”. Moreover, the “anti-bacterial effects of 300 μg/mL compared with 200 μg/mL” value in [4] (FIG. 9) is “significant enhanced anti-bacterial effects”. Besides, the growth inhibition result (in the series with E coli (ATCC 43895); in series [5]) was “inhibited growth” in each case. Besides, the aqueous solubility in series [2] is under 100 µg/mL.
As for `O=C(O[C@@H]1Cc2c(O)cc(O)cc2O[C@@H]1c1cc(O)c(O)c(O)c1)c1cc(O)c(O)c(O)c1` [EGCG, Epigallocatechin Gallate], the “time to complete degradation” value in [6] (4° C.) was determined as 24 h; in [6] (25° C.), 6 h; in [6] (37° C.), 3 h. Besides, in series [7], the “peak plasma EGCG concentration” value is reported as 0.15 UM. Further, the absolute oral bioavailability result in series [8] is reported as “about 0.1%”.
Take `O=c1c(O)c(-c2ccc(O)c(O)c2)oc2cc(O)cc(O)c12` [Q]: in [3] (dialysis method), the release profile entry is on record as “burst release”. Besides, the release pattern entry in [3] (dialysis method, release medium (FIG. 4B)) was “burst release pattern”. In series [9] (in vivo), this compound gave a half-life of 16.7 ± 10.5 h. Moreover, in series [9] (po), the Cmax was found to be 964 ± 536 ng/mL, the Ke was determined as 0.07 ± 0.06 h⁻¹, the mean residence time (MRT) stood at 12.1 ± 15.1 h and the time to peak (Tmax) stood at 2 h. Moreover, the AUC in series [9] (po, AUCo→24 h) was determined as 14600 ± 6270 ng·h/mL. Further, the AUC in series [9] (po, AUCo→∞) amounted to 15300 ± 6090 ng·h/mL. Moreover, the growth inhibition entry in the series on E coli (ATCC 43895) is reported as “inhibited growth”. Also, in series [5], the growth inhibition result is “inhibited growth”. Moreover, the “dissolution of 20 mg in 10 mL of 1×PBS” value in series [10] is on record as “not able to be dissolved”.

As usually defined, the half-life is the time in which the quantity being followed falls by half. Usually aqueous solubility stands for the dissolved amount per volume that the medium holds. For orientation: Cmax means the peak of the concentration-time curve. The term MRT denotes the average time that molecules of a dose stay in the body. The term Tmax denotes the time from dosing to the highest level. As a reminder, the AUC is concentration integrated over time.

Source of the values: patent publication US20250114324A1, “ANTIMICROBIAL MATERIALS AND NANOPARTICLES AND METHODS OF USE THEREOF” (Arizona Board of Regents on behalf of Arizona State …, priority 2022, published 2025).
